Experimental data taken from patent publication US20230146675A1, “PYRIMIDO[5,4-d]PYRIMIDINE DERIVATIVES AS ENT INHIBITORS FOR THE TREATMENT OF CANCERS, AND COMBINATION THEREOF WITH ADENOSINE RECEPTOR ANTAGONISTS” (ITEOS BELGIUM SA, priority 2020, published 2023).

Key:
[1] = target: T1, Human phosphodiesterase-3B (Homo sapiens, UniProt Q13370); test: PDE3B (h) assay; type: biochemical
T1 construct: host or cells: Sf9 cells
Description: The test compound (compound 72), reference compound or water (control) were added to a buffer containing 40 mM Tris/HCl (pH 7.8), 3 mM MgCl2, 1.4 mM DTT, 0.21% BSA, 200 mM NH4Cl, 2 μM cGMP and 0.05 μCi [3H]cGMP. Thereafter, the reaction was initiated by addition of the enzyme (final amount depending on the efficiency of the isolation) and the mixture was incubated for 60 min at 22° C. For basal control measurements, the enzyme was omitted from the reaction mixture. Following incubation SPA beads were added. After 20 min at 22° C. under shaking, the amount of [3H]5′GMP was quantified with a scintillation counter (Topcount, Packard). The results were expressed as a percent inhibition of the control enzyme activity. The standard inhibitory reference compound was zaprinast, which was tested in each experiment at several concentrations to obtain an inhibition curve from which its IC50 value was calculated. • Human phosphodiesterase-3B quantified by measuring the formation of 5′AMP from cAMP using a human recombinant enzyme expressed in Sf9 cells
(§1) The test compound (compound 72), reference compound or water (control) were added to a buffer containing 40 mM Tris/HCl (pH 7.4) and 8 mM MgCl2, 450 nM cAMP and 0.25 μCi [3H]cAMP. […] After 30 min at 22° C. under shaking, the amount of [3H]5′AMP was quantified with a scintillation counter (MicroBeta, Perkin Elmer). […]

[2] = target: T2, Human phosphodiesterase-4D2 (Homo sapiens, UniProt Q08499); test: PDE4D2 (h) assay; type: biochemical
T2 construct: host or cells: Sf9 cells
T2 sequence (Q08499 303-809 limits assumed): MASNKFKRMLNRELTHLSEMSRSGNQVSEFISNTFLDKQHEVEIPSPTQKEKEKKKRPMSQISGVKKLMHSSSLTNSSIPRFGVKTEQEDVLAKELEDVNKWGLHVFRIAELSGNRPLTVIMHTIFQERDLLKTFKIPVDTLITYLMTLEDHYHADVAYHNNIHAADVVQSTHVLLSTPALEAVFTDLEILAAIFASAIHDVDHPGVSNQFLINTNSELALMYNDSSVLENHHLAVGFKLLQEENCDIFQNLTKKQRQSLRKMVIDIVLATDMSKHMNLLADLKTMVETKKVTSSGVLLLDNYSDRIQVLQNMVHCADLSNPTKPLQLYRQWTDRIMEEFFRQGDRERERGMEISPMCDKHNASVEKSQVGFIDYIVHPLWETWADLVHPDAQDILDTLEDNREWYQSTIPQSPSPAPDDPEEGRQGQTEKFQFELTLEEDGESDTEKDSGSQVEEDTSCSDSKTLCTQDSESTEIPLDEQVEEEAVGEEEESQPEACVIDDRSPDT
Description: (§2) The test compound (compound 72), reference compound or water (control) were added to a buffer containing 40 mM Tris/HCl (pH 7.4), 8 mM MgCl2 and 1.7 mM EGTA/NaOH, 450 nM cAMP and 0.25 μCi [3H]cAMP. Thereafter, the reaction was initiated by addition of the enzyme (about 1.2 U) and the mixture was incubated for 20 min at 22° C. For basal control measurements, the enzyme was omitted from the reaction mixture. Following incubation SPA beads were added. After 30 min at 22° C. under shaking, the amount of [3H]5′AMP was quantified with a scintillation counter (MicroBeta, Perkin Elmer). The results were expressed as a percent inhibition of the control enzyme activity. The standard inhibitory reference compound was Ro 20-1724, which was tested in each experiment at several concentrations to obtain an inhibition curve from which its IC50 value was calculated. • Human phosphodiesterase-4D2 quantified by measuring the formation of 5′AMP from cAMP using a human recombinant enzyme expressed in Sf9 cells.
as §1, with “0.0125” for “0.25”, “(Topcount, Packard). The results were expressed as a percent inhibition of the control enzyme activity.” for “(MicroBeta, Perkin Elmer).”

[3] = target: T3, Human phosphodiesterase-4B1 (Homo sapiens, UniProt Q07343); test: PDE4B1 (h) assay; type: biochemical
T3 construct: host or cells: Sf9 cells
T3 sequence (Q07343 whole entry): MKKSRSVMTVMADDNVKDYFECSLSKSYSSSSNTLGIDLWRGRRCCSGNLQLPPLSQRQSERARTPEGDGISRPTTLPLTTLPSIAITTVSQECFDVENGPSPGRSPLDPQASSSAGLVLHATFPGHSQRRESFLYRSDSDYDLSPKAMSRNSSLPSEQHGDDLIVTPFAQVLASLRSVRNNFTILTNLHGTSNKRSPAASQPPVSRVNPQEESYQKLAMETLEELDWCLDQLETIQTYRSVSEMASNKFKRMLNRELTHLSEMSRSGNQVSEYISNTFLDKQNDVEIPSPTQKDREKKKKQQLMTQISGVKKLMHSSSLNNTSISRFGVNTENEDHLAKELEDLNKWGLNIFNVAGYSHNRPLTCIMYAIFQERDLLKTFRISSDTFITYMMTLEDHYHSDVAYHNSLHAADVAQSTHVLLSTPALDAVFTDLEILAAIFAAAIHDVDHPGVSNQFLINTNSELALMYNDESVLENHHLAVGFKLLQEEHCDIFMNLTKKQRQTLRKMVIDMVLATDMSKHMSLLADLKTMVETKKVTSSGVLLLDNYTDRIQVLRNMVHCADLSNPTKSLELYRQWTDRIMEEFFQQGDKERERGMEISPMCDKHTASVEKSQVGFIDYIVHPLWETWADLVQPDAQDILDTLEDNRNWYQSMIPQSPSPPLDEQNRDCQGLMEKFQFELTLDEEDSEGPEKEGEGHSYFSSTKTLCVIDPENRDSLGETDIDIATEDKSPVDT
Description: as §2, with “7.4) and” for “7.4),”, “MgCl2,” for “MgCl2 and 1.7 mM EGTA/NaOH,”, “10” for “1.2”, “phosphodiesterase-4B1” for “phosphodiesterase-4D2”
as §1, with “7.4),” for “7.4) and”, “MgCl2 and 1.7 mM EGTA/NaOH,” for “MgCl2,”, “Elmer). The results were expressed as a percent inhibition of the control enzyme activity.” for “Elmer).”

human ENT1 = target: T4, human ENT1 (Homo sapiens, UniProt Q99808); test: ENT1 binding assay (competition with Sahenta-DY647 on JAR cells); design: JAR cells expressing ENT1 were bought from ATCC; host or cells: JAR cells; conditions: binned IC50
T4 sequence (Q99808 1-456): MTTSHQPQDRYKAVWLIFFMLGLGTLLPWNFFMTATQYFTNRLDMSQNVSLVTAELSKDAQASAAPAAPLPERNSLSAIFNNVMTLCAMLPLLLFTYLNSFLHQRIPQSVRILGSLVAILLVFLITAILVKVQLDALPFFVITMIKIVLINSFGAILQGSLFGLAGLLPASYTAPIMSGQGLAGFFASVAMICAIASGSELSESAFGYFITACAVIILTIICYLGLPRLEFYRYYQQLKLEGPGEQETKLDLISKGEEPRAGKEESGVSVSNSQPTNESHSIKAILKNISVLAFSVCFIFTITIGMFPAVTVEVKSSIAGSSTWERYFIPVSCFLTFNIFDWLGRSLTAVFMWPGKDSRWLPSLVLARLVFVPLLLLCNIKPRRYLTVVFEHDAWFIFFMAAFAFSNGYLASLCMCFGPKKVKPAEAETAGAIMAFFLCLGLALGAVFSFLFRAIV
Summary of the method: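 JAR cells were incubated with test compounds and the fluorescent ligand Sahenta-DY647 in competition. Plates were washed twice by centrifugation (4 min, 400 rcf, 4 °C). Binding potency was derived from the final fluorescence.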

T1 sequence (Q13370 whole entry): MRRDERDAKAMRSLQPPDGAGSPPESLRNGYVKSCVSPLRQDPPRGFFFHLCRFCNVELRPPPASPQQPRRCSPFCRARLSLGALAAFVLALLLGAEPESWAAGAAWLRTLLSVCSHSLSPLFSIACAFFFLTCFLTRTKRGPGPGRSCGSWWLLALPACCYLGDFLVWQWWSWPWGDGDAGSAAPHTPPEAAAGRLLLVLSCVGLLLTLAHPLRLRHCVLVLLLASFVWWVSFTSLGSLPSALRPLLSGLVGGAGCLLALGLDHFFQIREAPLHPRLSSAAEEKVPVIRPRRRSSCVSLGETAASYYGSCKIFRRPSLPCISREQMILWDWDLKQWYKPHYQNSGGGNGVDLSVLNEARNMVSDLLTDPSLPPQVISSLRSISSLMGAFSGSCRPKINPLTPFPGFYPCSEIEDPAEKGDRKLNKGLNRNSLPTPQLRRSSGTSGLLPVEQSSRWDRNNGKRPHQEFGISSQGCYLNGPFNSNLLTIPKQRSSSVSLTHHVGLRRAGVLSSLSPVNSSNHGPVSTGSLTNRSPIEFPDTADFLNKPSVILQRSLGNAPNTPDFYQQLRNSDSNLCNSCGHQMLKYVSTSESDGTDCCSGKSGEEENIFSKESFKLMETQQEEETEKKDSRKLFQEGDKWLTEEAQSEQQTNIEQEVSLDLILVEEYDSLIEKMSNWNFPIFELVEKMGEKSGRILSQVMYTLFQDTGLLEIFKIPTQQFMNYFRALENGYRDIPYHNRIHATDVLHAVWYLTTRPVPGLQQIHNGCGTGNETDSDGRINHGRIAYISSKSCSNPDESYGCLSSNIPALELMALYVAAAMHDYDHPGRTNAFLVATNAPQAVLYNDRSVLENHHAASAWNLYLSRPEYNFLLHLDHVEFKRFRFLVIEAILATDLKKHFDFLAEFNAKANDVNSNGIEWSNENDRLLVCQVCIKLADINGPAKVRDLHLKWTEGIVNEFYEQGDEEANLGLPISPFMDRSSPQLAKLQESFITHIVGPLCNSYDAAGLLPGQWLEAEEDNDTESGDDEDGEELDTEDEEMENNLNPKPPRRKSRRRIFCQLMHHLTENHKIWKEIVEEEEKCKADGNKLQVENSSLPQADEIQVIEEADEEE

IC50 [1]: > 10 µM
IC50 [2]: 1 to 10 µM
IC50 [3]: 1 to 10 µM
IC50 (human ENT1): < 0.1 µM
Structure (SMILES): COCCN(CCOC)c1nc(N2CCN(C)C(=O)C2)c2nc(N(CCOC)CCOC)nc(N3CCC(OC)CC3)c2n1 [Compound 72, 4-(2,6-bis(bis(2-methoxyethyl)amino)-8-(4-methoxypiperidin-1-yl)pyrimido[5,4-d]pyrimidin-4-yl)-1-methylpiperazin-2-one]
